Experimental data taken from patent publication US12606561B2, “Substituted pyrazolo[1,5-a][1,3,5]triazines as CDK inhibitors” (QURIENT CO., LTD., priority 2018, dated 2026).

Assays:
CDK1/Cyclin B = target: T1, CDK1/Cyclin B (Homo sapiens, UniProt P06493); assay: Enzymatic assay for CDK1 (LANCE Ultra kinase assay, FRET based); type: biochemical; conditions: ATP at Km; read-out: CDK1 enzymatic activity IC50
T1 construct: purchased Invitrogen PR4768C
Procedure: (§1) Enzymatic Binding Assay Protocol for CDK1, CDK2, CDK5 and CDK7
(§2) Inhibition activity of the respective compound on CDK kinase under Km value of ATP was tested in FRET based The LANCE® Ultra kinase assay (Perkin Elmer), which uses a ULight™-labeled peptide substrate and an appropriate Europium-labeled anti-phospho-antibody. […] After 1 min centrifugation at 1000 rpm, purified CDKs/Cyclin complex were added with the following concentrations respectively. […] Data were analyzed using XL Fit software.

CDK2/Cyclin A = target: T2, CDK2/Cyclin A (Homo sapiens, UniProt P24941); assay: Enzymatic assay for CDK2 (LANCE Ultra kinase assay, FRET based); type: biochemical; conditions: ATP at Km
T2 construct: purchased Invitrogen PV6290
Procedure: as §1
(§3) Inhibition activity of the respective compound on CDK kinase under Km value of ATP was tested in FRET based The LANCE® Ultra kinase assay (Perkin Elmer), which uses a ULight™-labeled peptide substrate and an appropriate Europium-labeled anti-phospho-antibody. Test compounds were made with DMSO solutions, and then 4-fold serial dilutions for 8 doses were prepared using automated liquid handler (POD™ 810, Labcyte) and 80 nL/well of diluted compound solutions were added into the 384-well plates (Greiner, Cat #784075). And then 68 nM of ULight-MBP peptide (Perkin Elmer, Cat #TRF0109-M) and 5 ul/well of ATP (Sigma, Cat #A7699) were added to the plate. After 1 min centrifugation at 1000 rpm, purified CDKs/Cyclin complex were added with the following concentrations respectively. 24 uM for CDK1/Cyclin B (Invitrogen, Cat #PR4768C), 22 uM for CDK2/Cyclin A (Invitrogen, Cat #PV6290), 10 uM for CDK5/p25 (Invitrogen, Cat #PR8543B) and […] for CDK7/Cyclin H/MNAT1 (Invitrogen, Cat #PR6749B) were added to each corresponding plate for CDK1, CDK2, CDK5 and CDK7. Incubate at 23° C. for 60 min and then Eu-labeled anti-phospho-Myelin Basic Protein (PE, Cat #TRF0201-M) and EDTA (Invitrogen, Cat #15575038) mixture in Lance Detection Buffer (Perkin Elmer, Cat #CR97100) was added in each well. After additional incubation at 23° C. for 60 min, test articles were measured the fluorescence using Envision leader (Perkin Elmer, USA) [Laser as excitation light; […] as the first and the second emission filter]. Data were analyzed using XL Fit software.

CDK5/p25 = target: T3, CDK5/p25 (Homo sapiens, UniProt Q00535); assay: Enzymatic assay for CDK5 (LANCE Ultra kinase assay, FRET based); type: biochemical; conditions: ATP at Km
T3 construct: purchased Invitrogen PR8543B
Procedure: as §1, §3

CDK7/Cyclin H/MNAT1 = target: T4, CDK7/Cyclin H/MNAT1 (Homo sapiens, UniProt P50613); assay: Enzymatic assay for CDK7 (LANCE Ultra kinase assay, FRET based); type: biochemical; conditions: for IC50: ATP at Km
T4 construct: purchased Invitrogen PR6749B
Procedure: as §1, §2

A2780 = A2780 viability assay (CellTiter-Glo, 72 hours); type: cell-based; conditions: Homo sapiens; A2780 cells
Procedure: Human […] cell line, MV4-11_(ATCC, Cat #CRL-9591), NSCLC (Non-small cell lung cancer) cell line H460 (ATCC, Cat #HTB-177), A2780 (ECACC, Cat #93112519) and OVCAR-3(ATCC, Cat #HTB-161) were obtained from ATCC. Cells were grown in RPMI-1640 media (Invitrogen, Cat #22400-089) supplemented with 10% FBS (Invitrogen, Cat #10099141) and 1% penicillin/streptomycin (Invitrogen, Cat #15070063) and cultured at 37° C., 5% CO2 in a humidified chamber. All cell lines were routinely tested for mycoplasma.
To effect of the CDK7 inhibitor to inhibit the growth of target cancer cells, viability assay were conducted a 72 hour time period. Briefly, the candidate cell line was plated in 96 well plate at the following density of cells respectively. 1×10^4 cells/well for MV4-11, 5×10^3 for H460 and OVCAR-3, and 1×10^3 for A2780. After 24 hours, the cells were treated with various concentrations of the compound (ranging from 0.0015 uM to 10 uM). DMSO solvent without compound served as a control and final DMSO concentration lest than 0.1%. After 72 hours of incubation at 37° C., 5% CO2 incubator, cells were analyzed for the viability using the CellTiter-Glo Luminescent Cell Viability Assay (Promega, Cat #G7570). All viability assays were performed in duplicate and Luminescence was read using an Envision (Perkin Elmer, USA). Data was analyzed using XLfit software.

T4 sequence (P50613 whole entry): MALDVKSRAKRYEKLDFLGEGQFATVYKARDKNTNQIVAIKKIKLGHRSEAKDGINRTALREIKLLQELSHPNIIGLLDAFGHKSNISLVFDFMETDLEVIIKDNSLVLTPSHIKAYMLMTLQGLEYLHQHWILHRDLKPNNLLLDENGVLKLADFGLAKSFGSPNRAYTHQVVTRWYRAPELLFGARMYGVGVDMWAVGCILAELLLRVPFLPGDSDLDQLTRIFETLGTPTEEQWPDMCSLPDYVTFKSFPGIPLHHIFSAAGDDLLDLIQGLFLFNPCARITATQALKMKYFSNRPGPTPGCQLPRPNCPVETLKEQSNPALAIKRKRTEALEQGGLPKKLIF
T4 sequence (P51946 whole entry partner): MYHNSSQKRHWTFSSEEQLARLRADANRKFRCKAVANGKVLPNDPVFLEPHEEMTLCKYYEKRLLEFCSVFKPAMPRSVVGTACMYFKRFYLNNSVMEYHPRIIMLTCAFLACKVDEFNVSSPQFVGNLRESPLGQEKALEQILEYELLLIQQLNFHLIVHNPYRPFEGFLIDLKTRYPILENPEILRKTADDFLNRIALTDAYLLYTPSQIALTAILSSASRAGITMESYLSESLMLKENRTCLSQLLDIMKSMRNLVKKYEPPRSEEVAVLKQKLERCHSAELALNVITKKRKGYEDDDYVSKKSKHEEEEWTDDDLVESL
T4 sequence (P51948 whole entry partner): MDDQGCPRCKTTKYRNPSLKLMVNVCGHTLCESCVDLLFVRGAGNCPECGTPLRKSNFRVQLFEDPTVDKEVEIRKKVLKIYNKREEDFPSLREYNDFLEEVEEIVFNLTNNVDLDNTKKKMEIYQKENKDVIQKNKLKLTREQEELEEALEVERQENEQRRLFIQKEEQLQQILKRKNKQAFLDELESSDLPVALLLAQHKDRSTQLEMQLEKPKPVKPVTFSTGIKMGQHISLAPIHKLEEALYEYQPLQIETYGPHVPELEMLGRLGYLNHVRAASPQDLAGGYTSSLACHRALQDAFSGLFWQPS
T1 sequence (P06493 whole entry): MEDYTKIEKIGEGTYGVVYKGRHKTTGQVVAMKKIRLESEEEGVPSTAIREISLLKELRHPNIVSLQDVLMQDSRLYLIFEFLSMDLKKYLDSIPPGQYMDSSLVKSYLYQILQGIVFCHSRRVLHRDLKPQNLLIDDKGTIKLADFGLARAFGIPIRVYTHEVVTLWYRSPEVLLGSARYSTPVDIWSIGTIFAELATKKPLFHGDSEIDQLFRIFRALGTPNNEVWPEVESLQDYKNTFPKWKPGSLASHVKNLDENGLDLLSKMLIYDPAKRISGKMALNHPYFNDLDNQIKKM
T1 sequence (P14635 whole entry partner): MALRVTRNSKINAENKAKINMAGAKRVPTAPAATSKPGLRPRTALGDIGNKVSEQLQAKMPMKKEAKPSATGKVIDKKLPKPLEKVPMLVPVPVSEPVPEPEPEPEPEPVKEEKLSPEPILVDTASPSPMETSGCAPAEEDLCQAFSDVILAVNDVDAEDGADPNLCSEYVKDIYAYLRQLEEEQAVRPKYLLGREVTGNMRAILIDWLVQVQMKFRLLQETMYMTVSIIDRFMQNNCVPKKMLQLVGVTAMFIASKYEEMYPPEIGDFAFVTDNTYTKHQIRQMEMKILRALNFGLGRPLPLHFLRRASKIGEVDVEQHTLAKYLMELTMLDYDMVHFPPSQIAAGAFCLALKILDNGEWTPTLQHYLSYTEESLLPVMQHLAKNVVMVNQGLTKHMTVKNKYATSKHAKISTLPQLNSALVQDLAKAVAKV
T3 sequence (Q00535 whole entry): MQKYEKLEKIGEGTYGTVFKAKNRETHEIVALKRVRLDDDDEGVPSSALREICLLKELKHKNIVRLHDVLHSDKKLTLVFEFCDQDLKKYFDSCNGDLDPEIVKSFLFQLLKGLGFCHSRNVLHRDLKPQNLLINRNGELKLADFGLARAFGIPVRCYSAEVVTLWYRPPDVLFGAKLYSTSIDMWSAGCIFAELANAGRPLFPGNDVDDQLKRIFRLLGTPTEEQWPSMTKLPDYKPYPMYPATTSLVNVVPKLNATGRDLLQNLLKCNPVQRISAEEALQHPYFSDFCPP
T3 sequence (Q15078 99-307 partner limits assumed): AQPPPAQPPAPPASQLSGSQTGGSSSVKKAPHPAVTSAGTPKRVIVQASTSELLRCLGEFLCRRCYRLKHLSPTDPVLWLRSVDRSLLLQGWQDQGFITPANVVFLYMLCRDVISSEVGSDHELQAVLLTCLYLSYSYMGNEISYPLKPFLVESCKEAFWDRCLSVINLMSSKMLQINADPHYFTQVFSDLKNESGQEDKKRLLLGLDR

SMILES	IC50 (CDK1/Cyclin B) [µM]	IC50 (CDK2/Cyclin A) [µM]	IC50 (CDK5/p25) [µM]	IC50 (CDK7/Cyclin H/MNAT1) [µM]	CDK1/CDK7: Selectivity of CDK7 inhibition over CDK1 inhibition (CDK7/Cyclin H/MNAT1)	CDK2/CDK7: Selectivity of CDK7 inhibition over CDK2 inhibition (CDK7/Cyclin H/MNAT1)	CDK5/CDK7: Selectivity of CDK7 inhibition over CDK5 inhibition (CDK7/Cyclin H/MNAT1)	IC50 (A2780) [µM]
C=C(F)C(=O)N1CCc2c(cccc2-c2ccccc2CNc2nc(OC3CCC(C)(C)NC3)nc3c(C(C)C)cnn23)C1 (stereo not drawn) [Compound 191]	> 1	> 1	> 1	< 0.1	A (A indicates [fold] > 500)	A (A indicates [fold] > 500)	A (A indicates [fold] > 500)	< 1
C=C(F)C(=O)N1CCc2c(cccc2-c2ccccc2CNc2nc(N[C@@H]3CCCNC3)nc3c(C(C)C)cnn23)C1 [Compound 192]	> 1	> 1	> 1	< 0.1	A (A indicates [fold] > 500)	A (A indicates [fold] > 500)	A (A indicates [fold] > 500)	< 1
C=CC(=O)Nc1ccc2c(-c3ccccc3CNc3cc(Cl)nc4c(C(C)C)cnn34)nccc2c1 [Compound 193]	> 1	> 1	> 1	< 0.1	A (A indicates [fold] > 500)	A (A indicates [fold] > 500)	A (A indicates [fold] > 500)	< 1
C=CC(=O)Nc1ccc2c(-c3ccccc3CNc3cc(C)nc4c(C(C)C)cnn34)nccc2c1 [Compound 195]	> 1	> 1	> 1	< 0.1	A (A indicates [fold] > 500)	A (A indicates [fold] > 500)	A (A indicates [fold] > 500)	< 1
C=CC(=O)Nc1ccc2c(-c3ccccc3CNc3cc(C(F)(F)F)nc4c(C(C)C)cnn34)nccc2c1 [Compound 198]	> 1	> 1	> 1	< 0.1	B (B indicates 50 < [fold] ≤ 500)	B (B indicates 50 < [fold] ≤ 500)	B (B indicates 50 < [fold] ≤ 500)	< 1
C=C(F)C(=O)N1CCc2c(ccnc2-c2ccccc2CNc2nc(OC3CCC(C)(C)NC3)nc3c(C(C)C)cnn23)C1 (stereo not drawn) [Compound 199]	> 1	> 1	> 1	< 0.1	A (A indicates [fold] > 500)	A (A indicates [fold] > 500)	A (A indicates [fold] > 500)	< 1

The next lines start with the values.

IC50 (CDK1/Cyclin B) [µM]	IC50 (CDK2/Cyclin A) [µM]	IC50 (CDK5/p25) [µM]	IC50 (CDK7/Cyclin H/MNAT1) [µM]	CDK1/CDK7: Selectivity of CDK7 inhibition over CDK1 inhibition (CDK7/Cyclin H/MNAT1)	CDK2/CDK7: Selectivity of CDK7 inhibition over CDK2 inhibition (CDK7/Cyclin H/MNAT1)	CDK5/CDK7: Selectivity of CDK7 inhibition over CDK5 inhibition (CDK7/Cyclin H/MNAT1)	IC50 (A2780) [µM]	SMILES
> 1	> 1	> 1	< 0.1	A (A indicates [fold] > 500)	A (A indicates [fold] > 500)	A (A indicates [fold] > 500)	< 1	C=C(C)C(=O)Nc1ccc2c(-c3ccccc3CNc3nc(OC4CCC(C)(C)NC4)nc4c(C(C)C)cnn34)nccc2c1 (stereo not drawn) [Compound 190]
> 1	> 1	> 1	< 0.1	A (A indicates [fold] > 500)	A (A indicates [fold] > 500)	A (A indicates [fold] > 500)	< 1	C=CC(=O)Nc1ccc2c(-c3ccccc3CNc3nc(Nc4cccc(OC5CCC(C)(C)NC5)c4)nc4c(C(C)C)cnn34)nccc2c1 (stereo not drawn) [Compound 194]
> 1	> 1	> 1	> 1	C (C indicates [fold] ≤ 50)	C (C indicates [fold] ≤ 50)	C (C indicates [fold] ≤ 50)	1 to 10	C=CC(=O)Nc1ccc2c(-c3ccccc3CNc3nc(NCc4cnc(C)s4)nc4c(C(C)C)cnn34)nccc2c1 [Compound 196]
> 1	> 1	> 1	< 0.1	A (A indicates [fold] > 500)	A (A indicates [fold] > 500)	A (A indicates [fold] > 500)	< 1	C=CC(=O)Nc1ccc2c(-c3ccccc3CNc3cc(C4CC4)nc4c(C(C)C)cnn34)nccc2c1 [Compound 197]
> 1	> 1	> 1	< 0.1	B (B indicates 50 < [fold] ≤ 500)	B (B indicates 50 < [fold] ≤ 500)	B (B indicates 50 < [fold] ≤ 500)	< 1	C=CC(=O)Nc1ccc2c(-c3ccccc3CNc3nc(-c4cccnc4)nc4c(C(C)C)cnn34)nccc2c1 [Compound 200]
> 1	> 1	> 1	< 0.1	B (B indicates 50 < [fold] ≤ 500)	B (B indicates 50 < [fold] ≤ 500)	B (B indicates 50 < [fold] ≤ 500)	< 1	C=CC(=O)Nc1ccc2c(-c3ccccc3CNc3nc(-c4ccncc4)nc4c(C(C)C)cnn34)nccc2c1 [Compound 201]
